# Read-outs that look alike come from different tables or passages of the source.
# Experiments:
# CYP1A1 [1] = conditions: for mCherry fluorescence intensity at different concentrations: real-time, TCDD positive control
# Experimental: The CYP1A1 fluorescently labelled stem cell line-derived hepatic organoids were treated with the selected hazardous chemicals, tert-butylhydroquinone (tBHQ), 1,2-naphtoquinone (1,2-NQ), and 1,4-naphtoquinone (1,4-NQ) to observe the changes in mCherry fluorescence intensity in real-time.
# CYP1A1 [2] = assay: CYP1A1 mRNA expression level in CYP1A1-mCherry hPSC-derived hepatic organoids; type: cell-based, human
# [3] = hepatic organoids, real-time fluorescence, 24 hours of treatment
compound,measurement,setting,value
"Cc1ccc2cc3c(ccc4ccccc43)c3c2c1CC3 [3-MC, 3-methylcholanthrene]",mCherry fluorescence intensity in hepatic organoids,CYP1A1 [1]; [3],increase
Cc1oncc1C(=O)Nc1ccc(C(F)(F)F)cc1 [leflunomide],mCherry fluorescence intensity in hepatic organoids,CYP1A1 [1],increase
COc1cccc2c1C(=O)c1c(O)c3c(c(O)c1C2=O)C[C@@](O)(C(C)=O)C[C@@H]3O[C@H]1C[C@H](N)[C@H](O)[C@H](C)O1 [daunorubicin],mCherry fluorescence intensity in hepatic organoids,CYP1A1 [1],increase
"Clc1cc2c(cc1Cl)Oc1cc(Cl)c(Cl)cc1O2 [TCDD, 2,3,7,8-tetrachlorodibenzo-p-dioxin]","mCherry fluorescence intensity, time-lapse imaging","CYP1A1 [1]; hepatic organoids, 3-hour intervals up to 72 hours after treatment",increased in a time-dependent manner
same,mCherry fluorescence,"CYP1A1 [1]; hepatic organoids, 24 hours after treatment, imaging device",increase
same,CYP1A1 mRNA expression level,CYP1A1 [2]; 24 hours after treatment,increased
"CC(C)(C)c1cc(O)ccc1O [tBHQ, tert-Butylhydroquinone]",mCherry fluorescence intensity at different concentrations,CYP1A1 [1]; hepatic organoids,increased in a concentration-dependent manner
"O=C1C=CC(=O)c2ccccc21 [1,4-NQ, 1,4-Naphtoquinone]",mCherry fluorescence intensity at different concentrations,CYP1A1 [1]; hepatic organoids,increased in a concentration-dependent manner
CC(=O)[C@]1(O)Cc2c(O)c3c(c(O)c2[C@@H](O[C@H]2C[C@H](N)[C@H](O)[C@H](C)O2)C1)C(=O)c1ccccc1C3=O [idarubicin],mCherry fluorescence intensity in hepatic organoids,CYP1A1 [1],increase
Cc1ccccc1N=Nc1ccc(NC(=O)c2ccnn2C)c(C)c1 [CH223191],"mCherry fluorescence intensity, treated together with AHR agonists","CYP1A1 [1]; hepatic organoids, treated together with TCDD and BaP",decreased
same,"mCherry fluorescence intensity, treated together with three hazardous chemicals","CYP1A1 [1]; hepatic organoids, treated together with tBHQ, 1,2-NQ, 1,4-NQ",decreased
same,"CYP1A1 gene expression level, treated together with AHR agonists",CYP1A1 [2]; treated together with TCDD and BaP,decreased
same,"CYP1A1 mRNA expression level, treated together with three hazardous chemicals","CYP1A1 [2]; treated together with tBHQ, 1,2-NQ, 1,4-NQ",decrease
"COc1cccc2c1C(=O)c1c(O)c3c(c(O)c1C2=O)C[C@@](O)(C(=O)CO)C[C@@H]3O[C@H]1C[C@H](N)[C@H](O)[C@H](C)O1 [DOX, doxorubicin]",mCherry fluorescence intensity in hepatic organoids,CYP1A1 [1],increase
"O=C1C=Cc2ccccc2C1=O [1,2-NQ, 1,2-Naphtoquinone]",mCherry fluorescence intensity at different concentrations,CYP1A1 [1]; hepatic organoids,increased in a concentration-dependent manner
"O=Cc1c2c(cc3c1=Nc1ccccc1-3)=Nc1ccccc1-2 [FICZ, 6-formylindolo [3,2-B]carbazole]",mCherry fluorescence intensity in hepatic organoids,CYP1A1 [1]; [3],increase
